# From patent US12473250B2, “Molecular design of new antibiotics and antibiotic adjuvants against MCR strains” (priority 2019, dated 2025)
# Key:
# Assay type in all cases: cell-based
# [1] = test system: colistin resistant MCR (+) E. Coli strains; test: MIC, broth microdilution, compound alone; conditions: compound alone
# Summary of the method: (§1)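 Wells held ~5×10^5 CFU/mL of bacteria prepared to 0.5 McFarland from overnight TSA colonies and exposed to serially diluted agents, following modified CLSI microdilution. After 24 h at 35 °C, growth judged by turbidity (OD600 possible); 99% inhibition sets the MIC.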
# [2] = test system: colistin resistant MCR (−) E. Cloacae strain 7023456439; test: MIC, broth microdilution, compound alone; conditions: strain 7023456439 E. Cloacae
# Summary of the method: as §1
# [3] = test system: colistin resistant MCR (−) E. Coli strains; test: MIC, broth microdilution, compound alone
# Summary of the method: as §1
# [4] = test system: colistin resistant MCR (+) E. Coli strains; test: Synergy study: colistin MIC in the presence of compound
# Summary of the method: (§2)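 After 24 hours, MIC was read as the lowest concentration without visible growth. Drugs were tested singly and in combination by CLSI broth microdilution, equal-amount colistin:LC compound mixtures serially diluted 2-fold at a fixed synergy concentration.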
# [5] = test system: colistin resistant MCR (−) E. Cloacae strain 7023456439; test: as above; conditions: strain 7023456439 E. Cloacae
# Summary of the method: as §2
# [6] = test system: colistin resistant MCR (−) E. Coli strains; test: as above
# Summary of the method: as §2
# [7] = strain 6075066346, MCR(+), compound at 5 μg (Table 2a: 5 ug/ml)
# [8] = compound at 5 μg (Table 2a: 5 ug/ml)
# [9] = strain 6083672926, MCR(−), compound at 5 μg (Table 2a: 5 ug/ml)
# [10] = strain 7023446108, MCR(−), compound at 5 μg (Table 2a: 5 ug/ml)
# [11] = strain 7033607097, MCR(−), compound at 5 μg (Table 2a: 5 ug/ml)
SMILES,"MIC ([1]; strain 6075066346, MCR (+))","MIC ([1]; strain 6083655967, MCR (+))","MIC ([1]; strain 6103645107, MCR (+))","MIC ([1]; strain 6123520276, MCR (+))","MIC ([1]; strain 7013177695, MCR (+))","MIC ([1]; strain 7023436560, MCR (+))",MIC [2],"MIC ([3]; strain 6083672926, MCR (−))","MIC ([3]; strain 7023446108, MCR (−))","MIC ([3]; strain 7033607097, MCR (−))","MIC ([1]; strain 7023444207, MCR (+))","Colistin MIC in the presence of the compound [4, 7]","Colistin MIC in the presence of the compound [5, 8]","Colistin MIC in the presence of the compound [6, 9]","Colistin MIC in the presence of the compound [6, 10]","Colistin MIC in the presence of the compound [6, 11]",also measured
CC(C)=CCc1c(OCCCCC[N+](C)(C)C)ccc(C(=O)/C=C/c2ccc(OCCCCC[N+](C)(C)C)cc2)c1O [LC311],3.125 µg/mL,3.125 µg/mL,3.125 µg/mL,6.25 µg/mL,6.25 µg/mL,3.125 µg/mL,6.25 µg/mL,3.125 µg/mL,3.125 µg/mL,6.25 µg/mL,–,–,–,–,–,–,"MIC ([1]; strain 7028444207 (Table 1b), MCR (+)): 3.125 µg/mL; Colistin MIC in the presence of the compound ([4]; strain 6075066346, MCR(+), compound at 2 μg): 0.78 µg/mL; Colistin MIC in the presence of the compound ([4]; strain 6083655967, MCR(+), compound at 2 μg): 0.39 µg/mL; Colistin MIC in the presence of the compound ([4]; strain 6103645107, MCR(+), compound at 2 μg): 0.39 µg/mL; Colistin MIC in the presence of the compound ([4]; strain 6123520276, MCR(+), compound at 2 μg): 0.39 µg/mL; Colistin MIC in the presence of the compound ([4]; strain 7013177695, MCR(+), compound at 2 μg): 0.78 µg/mL; Colistin MIC in the presence of the compound ([4]; strain 7023436560, MCR(+), compound at 2 μg): 0.39 µg/mL; Colistin MIC in the presence of the compound ([4]; strain 7023444207, MCR(+), compound at 2 μg): 0.39 µg/mL; Colistin MIC in the presence of the compound ([5]; compound at 2 μg): >12.5 µg/mL; Colistin MIC in the presence of the compound ([6]; strain 6083672926, MCR(−), compound at 2 μg): 0.39 µg/mL; Colistin MIC in the presence of the compound ([6]; strain 7023446108, MCR(−), compound at 2 μg): 0.78 µg/mL; Colistin MIC in the presence of the compound ([6]; strain 7033607097, MCR(−), compound at 2 μg): 0.195 µg/mL"
CC1(C)C=Cc2c(ccc3c2OCC(c2ccc(OCCCCC[N+](C)(C)C)cc2OCCCCC[N+](C)(C)C)C3)O1 (stereo not drawn) [LC316],50 µg/mL,50 µg/mL,50 µg/mL,50 µg/mL,50 µg/mL,50 µg/mL,>50 µg/mL,>50 µg/mL,50 µg/mL,>50 µg/mL,50 µg/mL,1.55 µg/mL,>12.5 µg/mL,6.25 µg/mL,1.56 µg/mL,1.56 µg/mL,–
CN(C)CCCN(C)CCCCOc1ccc(C2COc3c(ccc4c3C=CC(C)(C)O4)C2)c(OCCCCN(C)CCCN(C)C)c1 (stereo not drawn) [LC096],25 µg/mL,25 µg/mL,12.5 µg/mL,25 µg/mL,25 µg/mL,25 µg/mL,>25 µg/mL,12.5 µg/mL,25 µg/mL,12.5 µg/mL,25 µg/mL,<0.195 µg/mL,>25 µg/mL,<0.195 µg/mL,<0.195 µg/mL,<0.195 µg/mL,"Colistin MIC in the presence of the compound ([4]; strain 6083655967, MCR(+), compound at 5 μg (Table 2a: 5 ug/ml)): <0.195 µg/mL; Colistin MIC in the presence of the compound ([4]; strain 6103645107, MCR(+), compound at 5 μg (Table 2a: 5 ug/ml)): <0.195 µg/mL; Colistin MIC in the presence of the compound ([4]; strain 6123520276, MCR(+), compound at 5 μg (Table 2a: 5 ug/ml)): <0.195 µg/mL; Colistin MIC in the presence of the compound ([4]; strain 7013177695, MCR(+), compound at 5 μg (Table 2a: 5 ug/ml)): <0.195 µg/mL; Colistin MIC in the presence of the compound ([4]; strain 7023436560, MCR(+), compound at 5 μg (Table 2a: 5 ug/ml)): <0.195 µg/mL; Colistin MIC in the presence of the compound ([4]; strain 7023444207, MCR(+), compound at 5 μg (Table 2a: 5 ug/ml)): <0.195 µg/mL"
